Laboratory results: patent US20230181553A1, “COMPOSITION FOR HAIR IMPROVEMENT” (Dr. Cherry Inc., priority 2020, published 2023)

Columns and labels:
[1] = test system: CD163; test: Gene expression in human scalp tissue after pioglitazone treatment (qPCR); assay type: in vivo; settings: whole scalp three times once every two months, before vs 6 months after first treatment
Description: (§1) A human subject was also checked. A suspension of pioglitazone was prepared in the same manner as in Example 2, and the whole amount of the suspension was applied to the head of a human subject. The PG treatment was performed on the whole scalp three times at a frequency of once every two months. A tissue around the test site was collected with a 3 mm punch before the treatment and 2 months after performing the treatment three times (6 months after the first treatment). The collected tissue was halved, and one half was fixed with 10% formalin, and stored under refrigeration. The other half was immersed in RNA Stabilization Solution (RNAlater, Thermo Fisher Scientific, Lithuania), and the resultant was frozen in liquid nitrogen, and stored at -80° C. Thereafter, the gene expression analysis was performed in the same manner as the rat gene expression analysis.
(§2) A difference (ΔCt), in an expression level of mRNA, between ribosomal protein lateral stalk subunit P0 (Rp1P0) of a housekeeping gene and the target gene (average of Ct obtained from the qPCR reaction of each gene performed three times) was calculated, and in addition, a difference (ΔΔCt) in ΔCt between samples of the subject to be analyzed obtained before and after the treatment and a control (two persons not treated) was calculated. […]

[2] = test system: CD68; test: as above; assay type: in vivo; settings: whole scalp three times once every two months, before vs 6 months after first treatment
Description: as §1, §2

For `CCc1ccc(CCOc2ccc(CC3SC(=O)NC3=O)cc2)nc1` (centres unmarked) [pioglitazone], the “expression of CD163” value [1] was “found to increase” and the “expression of CD68” value [2] was “found to increase”.
